According to US20100069382A1, “Agent for prophylaxis or treatment of alcohol dependence or drug dependence” (priority 2006, published 2010):
Where two headings read alike, the source gives them in different places.

Assays:
[1] = tested on: msP rats; assay: Study on dependence elicitation (conditioned place preference) in msP rats; format: in vivo, rat
Description: A two-compartment box divided by guillotine door was used. […] For the following 6 days, the rats were treated on alternate days with three Compound A-pairing administrations (0.3 and 1.0 mg/kg/body weight, p.o.) and three vehicle-pairing administrations immediately before being placed, for 1 hour, into the assigned chamber with guillotine door close for drug-compartment discrimination (conditioning). The day after the last conditioning session, the rats were placed, for 15 min, in the box with door open. The time spent in the drug paired compartment was measured.

[2] = tested on: msP rats; assay: Yohimbine-induced reinstatement of alcohol-seeking behavior in msP rats; format: in vivo, rat
Description: Male genetically selected alcohol-preferring rats known as msP rats were used in this study (Addiction Biol. 11, 339-355, 2006). […] After acquisition of a stable baseline of 10% ethanol self-administration, rats were subjected to 30-min extinction sessions for 15 consecutive days. Extinction sessions were identical to 10% ethanol self-administration sessions, however alcohol was no longer available. Beginning on extinction day 10, rats were divided into three groups with similar baseline levels of responding for 10% ethanol. For six consecutive days, 1 hour before the self-administration session and 8 hours later, each group of rats were orally given vehicle, 0.3 mg/kg of Compound A or 1.0 mg/kg of Compound A. After the extinction sessions, rats were given yohimbine (1,25 mg/kg, i.p.) 35 min before the test sessions. The 30-min reinstatement test was conducted under extinction condition.
Yohimbine was used as stressor for this study, because yohimbine is known to produce stress and anxiety-like states in both humans and non-humans (Bremner et al, 1996; Charney et al 1983; Holmberg et al 1963).

[3] = tested on: Wistar rats; assay: Effect on alcohol withdrawal symptoms in Wistar rats; format: in vivo, rat
Description: Male Wistar rats were used in this study. According to the protocol shown in FIG. 1, rats were orally given 12-15 g/kg/body weight of ethanol in 24 hours on day 1 to day 2 and 9-10 g/kg/body weight of ethanol in 12 hours on day 3 to day 5. Compound A was administered p.o. at doses of 0.3 and 1 mg/kg/body weight twice after 2 and 7 hours of last ethanol administration. Four types of alcohol withdrawal symptoms such as vocalization, ventromedial limb retraction, tail rigidity, tail tremors were observed and scored with following 3 rating scales: mild=0, moderate=1, severe=2.

[4] = tested on: msP rats; assay: Effect on alcohol intake in msP rats; format: in vivo, rat
Description: Male genetically selected alcohol-preferring rats known as Marchigian Sardinian alcohol-preferring (msP) rats were used in this study (Addiction Biol. 11, 339-355, 2006). […] Compound A at doses of 0.3 and 1 mg/kg/body weight was orally administered twice for 9 days at 1 hour before and 8 hours after onset of dark period.

[5] = existing medicines, known profile, cited from earlier work
[6] = Economidou et al., Peptides 27, 3299-3306, 2006, cited from earlier work
[7] = 0.3 and 1 mg/kg/body weight p.o. twice, 2 and 7 hours after last ethanol, observed 8 to 24 hours after last ethanol administration, FIG. 2

In the case of `CNC(=O)Cn1c(=O)n(C2CCN([C@@H]3Cc4cccc5cccc3c45)CC2)c2ccccc21` [Compound A, (R)-2-{3-[1-(acenaphthen-1-yl)piperidin-4-yl]-2,3-dihydro-2-oxo-benzimidazol-1-yl}-N-methylacetamide], the “place preference (time spent in drug paired compartment)” value ([1]; 0.3 and 1.0 mg/kg/body weight p.o., three pairings, FIG. 8) is reported as “induced place preference at neither 0.3 nor 1 mg/kg/body weight”, the Presence/absence of dependence ([1]; Table 1 summary, Compound A) is reported as “absent” and the “dependence elicitation by the compound itself” value ([1]; conclusion from conditioned place preference at 0.3 and 1 mg/kg/body weight) is reported as “does not elicit dependence”. For the same compound, the “yohimbine stress-induced reinstatement of alcohol-seeking behavior” value ([2]; 1 mg/kg orally twice daily for six days, yohimbine 1,25 mg/kg i.p., FIG. 6) was “significantly attenuated”, the “Suppressive effect on stress-induced reinstatement” value ([2]; Table 1 summary, Compound A) was “yes” and the “score of tail rigidity (alcohol withdrawal symptom)” value [3, 7] was “significantly and dose-dependently decreased”. For the same compound, the “score of tail tremors (alcohol withdrawal symptom)” value [3, 7] was “significantly and dose-dependently decreased”, the “score of ventromedial limb retraction (alcohol withdrawal symptom)” value [3, 7] was “significantly and dose-dependently decreased” and the “Ameliorative effect on alcohol withdrawal symptoms” value (shortened to “Ameliorative effect”) ([3]; Table 1 summary, Compound A) was “yes”. The ethanol consumption ([4]; 0.3 and 1 mg/kg/body weight orally twice daily for 9 days, free choice water / 10% ethanol, FIG. 4) was “significantly and dose-dependently decreased”, the “Suppressive effect on excessive alcohol intake” value ([4]; Table 1 summary, Compound A) was “yes” and the “duration of significant decrease of ethanol consumption after withdrawal of Compound A” value ([4]; after 9 days of oral dosing at 0.3 and 1 mg/kg/body weight, FIG. 4) was 9 days.

In the case of `O=C1CC[C@@]2(O)[C@H]3Cc4ccc(O)c5c4[C@@]2(CCN3CC2CC2)[C@H]1O5` [Naltrexone], the “Ameliorative effect” value [5] is given as “none”, the Presence/absence of dependence [5] is given as “absent” and the “Suppressive effect on excessive alcohol intake” value [5] is given as “yes”. For the same compound, the “Suppressive effect on stress-induced reinstatement” value [5] was “none”, the “Ameliorative effect” value ([5]; listed as naltrexone) was “ineffective” and the “Suppressive effect on excessive alcohol intake” value ([5]; listed as naltrexone) was “effective”. The “Suppressive effect on stress-induced reinstatement” value ([5]; listed as naltrexone) was “ineffective”.

For `O=C1NCN(c2ccccc2)C12CCN([C@@H]1CC[C@H]3CCCc4cccc1c43)CC2` [Ro64-6198], the alcohol drinking [6] is given as “failed to decrease alcohol drinking” and the “alcohol drinking at high dose” value ([6]; high dose) is given as “increase”.

In the case of `CC(=O)NCCCS(=O)(=O)O` [Acamprosate], the “Ameliorative effect” value [5] is listed as “none”, the Presence/absence of dependence [5] is listed as “absent” and the “Suppressive effect on excessive alcohol intake” value [5] is listed as “yes”. For the same compound, the “Suppressive effect on stress-induced reinstatement” value [5] was “none”, the “Ameliorative effect” value ([5]; listed as acamprosate) was “ineffective” and the “Suppressive effect on excessive alcohol intake” value ([5]; listed as acamprosate) was “effective”. The “Suppressive effect on stress-induced reinstatement” value ([5]; listed as acamprosate) was “ineffective”.

For `Clc1cccc(Cl)c1N=C1NCCN1` [Clonidine], the “Ameliorative effect” value [5] is listed as “yes”, the Presence/absence of dependence [5] is listed as “absent” and the “Suppressive effect on excessive alcohol intake” value [5] is listed as “none”. For the same compound, the “Suppressive effect on stress-induced reinstatement” value [5] was “none”, the “Ameliorative effect” value ([5]; listed as clonidine) was “effective” and the “Suppressive effect on excessive alcohol intake” value ([5]; listed as clonidine) was “ineffective”. The “Suppressive effect on stress-induced reinstatement” value ([5]; listed as clonidine) was “ineffective”.

For `CN1C(=O)CN=C(c2ccccc2)c2cc(Cl)ccc21` [Diazepam], the “Ameliorative effect” value [5] is listed as “yes”, the Presence/absence of dependence [5] is listed as “present” and the “Suppressive effect on excessive alcohol intake” value [5] is listed as “none”. The “Suppressive effect on stress-induced reinstatement” value [5] was “none” and the Presence/absence of dependence ([5]; listed as diazepam) was “induce dependence”.
